What was measured:
α-galactosidase A = conditions: cells from patients with Fabry disease; cited from earlier work
[1] = tested on: lymphoblasts from BD patients with a Cln3 mutation; test: Cellular autofluorescence (AF) in BD/JNCL patient lymphoblasts by flow cytometry; type: cell-based, human
Protocol: Autofluorescence (AF): AF levels in human blood cells were measured in 30,000 cells using flow cytometry at FL-1 with the BD FACSCalibur™ (BD Biosciences) (Excitation; 488 nm, Emission; 530±15 nm) (for FIGS. 1A-1C). AF levels in lymphoblasts were measured in 20,000 cells using flow cytometry with Attune Flow Cytometer (Thermo Fisher Scientific) (Excitation; 488 nm, Emission; 530 nm) (for FIGS. 2A and 2B).

[2] = tested on: lymphoblasts from BD patients with a Cln3 mutation; test: LAMP1 staining of BD/JNCL patient lymphoblasts; type: cell-based, human
Protocol: (§1) LAMP1 staining: Lymphoblasts were fixed with methanol and incubated overnight at 4° C. with anti-human LAMP1 antibody (1:400, Cell Signaling Technology) followed by secondary antibody (Alexa Fluor 488 donkey anti-rabbit IgG, 1:1000, Thermo Fisher Scientific). Neuronal cells differentiated from iPS cells were fixed with 4% paraformaldehyde (PFA) and incubated overnight at 4° C. with anti-human LAMP1 antibody (1:400, Cell Signaling Technology) followed by a secondary antibody (Alexa Fluor 488 donkey anti-rabbit IgG, 1:1000, Thermo Fisher Scientific). White blood cells from mice were fixed with methanol and incubated overnight at 4° C. with LAMP1 antibody (1:1000, Abcam) followed by a secondary antibody (Alexa Fluor 488 donkey anti-rabbit IgG, 1:1000, Thermo Fisher Scientific). KEYENCE BZ-X710 and BX-Z analyzer software were used for imaging quantification.

Cln3−/− mice [3] = test: Novel object recognition test, BD animal model; type: in vivo; conditions: CLN3 knockout (KO) mice, FIG. 4D
Protocol: Novel Object Recognition Test (NORT): The test was carried out according to the previously validated method (Hatayama et al., Neuroscience 265 (2014) 217-25). All mice were habituated for 1 hour to the NORT arena one day before the test day. On the day of testing, the mice were given two 5-min trials (T1 with two identical objects and T2 with a familiar object from T1 and a novel object), separated by 1-hour interval. The discrimination index (DI) ((time spent exploring the novel object−time spent exploring the familiar object)/total exploration time) was calculated for T2 trials.

Cln3−/− mice [4] = test: LAMP1 staining of peripheral white blood cells, BD animal model; type: in vivo; conditions: CLN3 knockout (KO) mice, FIG. 4C
Protocol: as §1
Isolation of white blood cells from peripheral blood of mice: 20 μL of blood of mice was lysed with ACK lysing buffer (Lonza) for 1 min. After washing, cells were resuspended with RPMI.

PLA2G4A = test: RNA-sequencing in iPS cell-derived neurons: PLA2G4A expression; type: cell-based; conditions: WT and CLN3 KO human iPS cell-derived neurons, treated 2 weeks vs mock, FIG. 5A
Excerpt: (§2) RNA-sequencing in iPS cell-derived neurons: Cells were differentiated from iPS cells and treated either with 0.1% DMSO or Compound A for 2 weeks. RNAs were extracted using RNeasy Mini Kit (QIAGEN). The libraries for RNA-sequencing were constructed by SMART-Seq v4 Ultra Low Input RNA Kit (Takara bio).

PLA2G7 = test: RNA-sequencing in iPS cell-derived neurons: PLA2G7 expression; type: cell-based; conditions: WT and CLN3 KO human iPS cell-derived neurons, treated 2 weeks vs mock, FIG. 5B
Excerpt: as §2

[5] = tested on: animal model of GM1 gangliosidosis; conditions: cited from earlier work
[6] = tested on: Neuronal cells differentiated from Cln3 mutant iPSCs; test: LAMP1 staining of neuronal cells differentiated from Cln3 mutant iPSCs; type: cell-based, human; conditions: 0.4-10 μM, n=2-3, FIG. 2D
Protocol: as §1

## OC[C@H]1NC[C@H](O)[C@@H](O)[C@H]1O [1-deoxygalactonojirimycin (DGJ), 1-deoxygalactonojirimycin]
α-galactosidase A
  residual α-galactosidase A activity: enhance residual α-galactosidase A activity

## CC(C)CN1CCCn2c1nc1ccc(NCCN(C)C)cc1c2=O [Compound A, 8-{[2-(dimethylamino)ethyl]amino}-1-(2-methylpropyl)-1,2,3,4-tetrahydro-6H-pyrimido[2,1-b]quinazolin-6-one]
[1]; FIG. 4A
  elevated autofluorescence (AF) in Batten disease (BD) lymphoblasts: amelioration of elevated autofluorescence (AF)
[2]; FIG. 4B
  elevated LAMP1 signal in Batten disease (BD) lymphoblasts: amelioration of elevated LAMP1 signal
Cln3−/− mice [3]
  cognitive deficits (novel object recognition test) of BD mice: Amelioration of cognitive deficits
Cln3−/− mice [4]
  elevated LAMP1 signal in peripheral white blood cells of BD mice: amelioration of elevated LAMP1 signal
PLA2G4A
  expression of PLA2G4A: significantly influenced the expression of PLA2 genes
PLA2G7
  expression of PLA2G7: significantly influenced the expression of PLA2 genes

## CCCCCCCCNC1C=C(CO)C(O)C(O)C1O (stereo not drawn) [N-octyl 4-epi-β-valienamine (NOEV), N-octyl 4-epi-β-valienamine]
[5]
  residual activity in the brain: increased residual activity in the brain

## CC(C)c1nc(N(C)S(C)(=O)=O)nc(-c2ccc(F)cc2)c1/C=C/[C@@H](O)C[C@@H](O)CC(=O)O [rosuvastatin]
[1]; 10 μM, FIG. 2B
  elevated autofluorescence (AF) of JNCL patient lymphoblasts: decreased it
[2]; 10 μM, n=3, FIG. 2C
  anti-LAMP1 staining of JNCL patient lymphoblasts: decreased it
[2]; cites FIGS. 2C, 2D
  lysosomal deficits found in BD lymphoblasts (LAMP1 expression and AF levels): ameliorate the lysosomal deficits
[6]
  anti-LAMP1 staining of neuronal cells differentiated from Cln3 mutant iPSCs: dose-dependently decreased it

— US20250144101A1, “LYSOSOMAL DYSFUNCTION IN NEUROLOGICAL AND PSYCHIATRIC DISORDERS” (The Johns Hopkins University, priority 2022, published 2025)
